According to PubChem BioAssay (NCI):
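Method: 48-hour compound exposure of cells in 96-well plates, five concentrations, linear interpolation of endpoints. TGI: concentration producing complete growth inhibition.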

Tests used:
Assay in all cases: inhibition of tumour cell growth, NCI panel, 48 h
786-0 renal = tested on: 786-0 renal
A498 renal = tested on: A498 renal
A549 NSCLC = tested on: A549 NSCLC
ACHN renal = tested on: ACHN renal
BT-549 breast = tested on: BT-549 breast
CAKI-1 renal = tested on: CAKI-1 renal
CCRF-CEM leukemia = tested on: CCRF-CEM leukemia
COLO 205 colon = tested on: COLO 205 colon
DU-145 prostate = tested on: DU-145 prostate
EKVX NSCLC = tested on: EKVX NSCLC
HCT-116 colon = tested on: HCT-116 colon
HCT-15 colon = tested on: HCT-15 colon
HOP-62 NSCLC = tested on: HOP-62 NSCLC
HOP-92 NSCLC = tested on: HOP-92 NSCLC
HS 578T breast = tested on: HS 578T breast
HT29 colon = tested on: HT29 colon
IGROV1 ovarian = tested on: IGROV1 ovarian
K-562 leukemia = tested on: K-562 leukemia
KM12 colon = tested on: KM12 colon
LOX IMVI melanoma = tested on: LOX IMVI melanoma
M14 melanoma = tested on: M14 melanoma
MALME-3M melanoma = tested on: MALME-3M melanoma
MCF7 breast = tested on: MCF7 breast
MDA-MB-231 breast = tested on: MDA-MB-231 breast
MDA-MB-435 = tested on: MDA-MB-435
MOLT-4 leukemia = tested on: MOLT-4 leukemia
NCI-H226 lung = tested on: NCI-H226 lung
NCI-H23 lung = tested on: NCI-H23 lung
NCI-H460 lung = tested on: NCI-H460 lung
NCI-H522 lung = tested on: NCI-H522 lung
NCI/ADR-RES ovarian = tested on: NCI/ADR-RES ovarian
OVCAR-3 ovarian = tested on: OVCAR-3 ovarian
OVCAR-4 ovarian = tested on: OVCAR-4 ovarian
OVCAR-5 ovarian = tested on: OVCAR-5 ovarian
OVCAR-8 ovarian = tested on: OVCAR-8 ovarian
PC-3 prostate = tested on: PC-3 prostate
RPMI-8226 leukemia = tested on: RPMI-8226 leukemia
RXF 393 renal = tested on: RXF 393 renal
SF-268 CNS = tested on: SF-268 CNS
SF-295 CNS = tested on: SF-295 CNS
SF-539 CNS = tested on: SF-539 CNS
SK-MEL-2 melanoma = tested on: SK-MEL-2 melanoma
SK-MEL-28 melanoma = tested on: SK-MEL-28 melanoma
SK-MEL-5 melanoma = tested on: SK-MEL-5 melanoma
SK-OV-3 ovarian = tested on: SK-OV-3 ovarian
SN12C renal = tested on: SN12C renal
SNB-19 CNS = tested on: SNB-19 CNS
SNB-75 CNS = tested on: SNB-75 CNS
SR leukemia = tested on: SR leukemia
SW-620 colon = tested on: SW-620 colon
T-47D breast = tested on: T-47D breast
TK-10 renal = tested on: TK-10 renal
U251 CNS = tested on: U251 CNS
UACC-257 melanoma = tested on: UACC-257 melanoma
UACC-62 melanoma = tested on: UACC-62 melanoma
UO-31 renal = tested on: UO-31 renal

Measured: TGI

Cc1cc(NN)nc2n[nH]c(N)c12
> 100 µM: all assays above
